Results as given in article PMC12124432, “Antimicrobial Peptide‐Peptoid Macrocycles from the Polymyxin B2 Chemical Space” (Angewandte Chemie (International Ed. in English), 2025).
Bridge positions count the residues as written; N and C are the ends. Square brackets hold non-standard residues; d marks the D form. Peptide text beside a SMILES is read from it. * marks the point of attachment. N(3-phenylpropyl)Gly = O=C(O)CNCCCc1ccccc1; Gly(NCH2CH2Ph) = O=C(O)CNCCc1ccccc1; Gly(N-2-aminoethyl) = NCCNCC(=O)O; Gly(N(CH2)3NH2) = NCCCNCC(=O)O; Gly(N-cPent) = O=C(O)CNC1CCCC1; Heptanoyl = CCCCCCC(=O)*; Nphe = O=C(O)CNCc1ccccc1; Octanoyl = CCCCCCCC(=O)*; Dab = NCC[C@H](N)C(=O)O; NPrGly = CCCNCC(=O)O

Experiments:
P. aeruginosa PAO1 = test: Transmission electron microscopy (TEM); format: cell-based, Pseudomonas aeruginosa; details: 10 × MIC, 12.5% MH, 2 h incubation at 37 °C, OD600 = 0.5
Method: Specific Fluorescence Enhacement
Concentration of Dansyl-PMB (μM)
Figure S9. Extracted data from the specific fluorescence enhancement data (Figure S8) from DsPMB at 485 nm. The plateau is reached at approximately 2.5 µM. Each data point represent mean ± SD, n =3.
15. Transmission Electron Microscopy (TEM)
Transmission electron microscopy was evaluated at a high cell density (10^8 CFU) and a concentration (10x MIC) that killed the bacteria, but not all of them. An overnight culture of P. aeruginosa PAO1 was regrown until exponential phase (1 mL, OD600 = 0.5) in 12.5% MH medium pH 7.4, treated with the compounds, in diluted MH medium (at pH 7.4) and incubated for 2 hours at 37 °C. Just before the samples were further prepared for the microscopy, surviving bacteria were quantified by plating 10-fold dilutions of samples in sterilized normal saline (NaCl 0.9 %) on LB agar plates. LB agar plates were incubated at 37 °C for 10 hours and the number of individual colonies was counted at each time-point, to monitor partial bacteria killing. The assay was performed in triplicates. Each bacteria sample was centrifuged at 12’000 rpm for 3 min and the supernatant was discarded. The samples were fixed overnight with 2.5% glutaraldehyde (Agar Scientific, Stansted, Essex, UK) in 0.15 M HEPES (Fluka, Buchs, Switzerland) with an osmolarity of 630 mOsm and adjusted to a pH of 7.44. […]

[1] = Dansyl-polymyxin (DsPMB) displacement assay; format: binding, Pseudomonas aeruginosa; details: 37 °C, 2.5 µM DsPMB, LPS 3 μg/mL, emission 485 nm; mean ± SD, n = 3
Method: 14. Dansyl-Polymyxin (DsPMB) Displacement Assay
Saturation determination. Dansyl-polymyxin (DsPMB) in water (1.5 mg/mL) and lyophilized lipopolysaccharides from P. aeruginosa were obtained from Merck. LPS were prepared as a 1 mg/mL stock solution in mQ water and stored at 4 °C. The fluorescence saturation of DsPMB with LPS was first determined, by titration (0.25 μM increments, up to 5 μM) of the DsPMB into a 3 μg/mL of LPS (10 mM Tris, 10 mM NaCl buffer, pH 7.4), at 37 °C. The fluorescence was recorded with a Jasco spectrofluorometer FP-8300, with the excitation at λex = 340 nm (5 nm slit width) and recorded from 420 to 650 nm. The fluorescence was recorded two minutes after each addition. Saturation was graphically determined, at a concentration of D sPMB ≈ 2.5 μM (λem = 485 nm). Each measurement was determined in triplicates.
Displacement assay. The displacement effect of the various peptides was determined by measuring the reduction of fluorescence intensity, at 37 °C. Initially, DsPMB (2.5 μM) was mixed with LPS (3 μg/mL) and let it react for 15 minutes before recording the fluorescence […]
intensity (at λem = 485 nm and λex = 340 nm). Then, the peptide was titrated (1 μM increments, up to 10 μM) into the DsPMB/LPS mixture, and the fluorescence was recorded two minutes after the compound addition. The decrease in fluorescence was interpreted as the displacement of DsPMB from the LPS due to competitive binding by the peptide.[12,13] Specific Fluorescence Enhancement
Figure S8. Fluorescence emission of dansyl-polymyxin (DsPMB) in presence of lipopolysaccharide (LPS) extracted from P. aeruginosa (3 µg/mL) in TRIS/NaCl buffer (10 mM, pH 7.4). The fluorophore was excited at 340 nm (5 nm slit width) and recorded from 420 to 650 nm. The data represent mean value from three measurement. Specific fluorescence represents the emission of DsPMB with the non-specific fluorescence (no LPS) deduced.

SMILES: CCCCCCCC(=O)N(CCc1ccccc1)CC(=O)N[C@@H](CCCCN)C(=O)N[C@@H](CC(N)=O)C(=O)N[C@H]1CCNC(=O)[C@H](CCCCN)NC(=O)CN(CCCN)C(=O)[C@H](CCCCN)NC(=O)CN(CCC)C(=O)[C@H](CCCCN)NC1=O [EB12] (Octanoyl-[Gly(NCH2CH2Ph)]KN[Dab]K[NPrGly]K[Gly(N(CH2)3NH2)]K; lactam 4-C)
- TEM pattern of treated P. aeruginosa cells (P. aeruginosa PAO1): aggregation of intracellular contents
- Binding to lipopolysaccharide (dansyl-PMB fluorescence displacement) [1]: to a similar extent as PMB2 itself

SMILES: CCCCCCC(=O)N[C@H](C(=O)N(CCN)CC(=O)N(CCCc1ccccc1)CC(=O)N[C@H]1CCNC(=O)[C@H](CCCCN)NC(=O)CN(CCCN)C(=O)[C@H](CCCCN)NC(=O)CNC(=O)[C@H](CCCCN)NC1=O)C(C)C [EB13] (Heptanoyl-V[Gly(N-2-aminoethyl)][N(3-phenylpropyl)Gly][Dab]KGK[Gly(N(CH2)3NH2)]K; lactam 4-C)
- TEM pattern of treated P. aeruginosa cells (P. aeruginosa PAO1): aggregation of intracellular contents
- Binding to lipopolysaccharide (dansyl-PMB fluorescence displacement) [1]: to a similar extent as PMB2 itself

SMILES: CCCCCCCC(=O)N[C@@H](CCCCN)C(=O)N(CC(=O)N[C@@H](CCCCN)C(=O)N[C@H]1CCNC(=O)[C@H](CCCCN)NC(=O)CN(C2CCCC2)C(=O)CN(CCN)C(=O)[C@H](CCCCN)NC(=O)[C@H](CC(N)=O)NC1=O)Cc1ccccc1 [EB21] (Octanoyl-K[Nphe]K[Dab]NK[Gly(N-2-aminoethyl)][Gly(N-cPent)]K; lactam 4-C)
- Binding to lipopolysaccharide (dansyl-PMB fluorescence displacement) [1]: to a similar extent as PMB2 itself
